Test results published in patent US20100144886A1, “METHOD FOR TREATING PULMONARY ARTERIAL HYPERTENSION” (AGI Therapeutics Research Limited, priority 2006, published 2010).
Read-outs that look alike come from different tables or passages of the source.

Tests used:
5-HT5A receptor = 5-HT5A receptor (Homo sapiens, UniProt P47898); conditions: at 100×10^−7 M
Procedure: (§1) Each of those receptors was analyzed by methods known in the art. Initial assessment of binding at 100×10^−7 M (10 micro molar) was performed in duplicate.

5-HT6 receptor = 5-HT6 receptor (Homo sapiens, UniProt P50406); conditions: at 100×10^−7 M
Procedure: as §1

5-HT4E receptor = 5-HT4E receptor (Homo sapiens, UniProt Q13639); conditions: at 100×10^−7 M
Procedure: as §1

5-HT1D receptor = 5-HT1D receptor (Homo sapiens, UniProt P28221); conditions: at 100×10^−7 M
Procedure: as §1

5-HT2B receptor [1] = target: T1, 5-HT2B receptor (Homo sapiens, UniProt P41595)
Procedure: as §1

Na channel = Na channel binding
Excerpt: […]. […] […].
Those results are summarized at Table 9.

melatonin ML-1 [2] = tested on: T2, melatonin ML-1; assay: Melatonin ML1 binding affinity; design: species or system chicken
T2 construct: other: chicken brain; other: at 100×10^−7 M
Procedure: as §1

melatonin ML-1 [3] = assay: Melatonin ML1 binding affinity; design: species or system chicken; conditions: relative potency compared to CCB, Table 2
Procedure: as §1

5-HT2B receptor [4] = target: T1, 5-HT2B receptor; assay: 5-HT2B binding affinity of racemic verapamil and other calcium channel blockers (5-HT control, Bonhaus method); design: expressed in transfected cells; host or cells: CHO cells; conditions: relative potency compared to CCB, Table 2
Procedure: as §1

[5] = target: L-type calcium channel binding (CCB) site (Rattus norvegicus, UniProt P22002); assay: L-type calcium channel binding (CCB) affinity; conditions: rat cerebral cortex; relevant L-type calcium channel site of each blocker
Procedure: as §1
The binding activity of the reported receptors was analyzed using the following methods.
There are three distinct binding sites on the L-type calcium channel receptor. Further, the binding affinity at a particular site can be allosterically modulated by binding at one of the other sites. Thus, testing included the affinity of the different types of calcium channel blockers at their particular site of interaction.

T1 sequence (P41595 whole entry): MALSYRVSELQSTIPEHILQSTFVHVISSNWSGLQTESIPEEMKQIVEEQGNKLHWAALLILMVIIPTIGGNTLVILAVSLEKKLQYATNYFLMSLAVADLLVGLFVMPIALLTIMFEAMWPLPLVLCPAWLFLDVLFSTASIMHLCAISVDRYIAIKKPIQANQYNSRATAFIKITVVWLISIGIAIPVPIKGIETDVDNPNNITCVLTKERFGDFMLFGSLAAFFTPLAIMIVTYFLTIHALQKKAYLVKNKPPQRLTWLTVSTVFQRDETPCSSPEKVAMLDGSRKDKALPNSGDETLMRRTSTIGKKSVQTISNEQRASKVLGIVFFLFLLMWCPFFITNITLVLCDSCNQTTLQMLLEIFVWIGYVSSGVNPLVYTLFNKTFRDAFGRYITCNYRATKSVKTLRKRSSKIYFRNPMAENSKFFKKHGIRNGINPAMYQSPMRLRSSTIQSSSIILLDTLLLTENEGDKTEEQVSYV
Sequence of 5-HT4E receptor (Q13639 1-378 isoform Q13639-5): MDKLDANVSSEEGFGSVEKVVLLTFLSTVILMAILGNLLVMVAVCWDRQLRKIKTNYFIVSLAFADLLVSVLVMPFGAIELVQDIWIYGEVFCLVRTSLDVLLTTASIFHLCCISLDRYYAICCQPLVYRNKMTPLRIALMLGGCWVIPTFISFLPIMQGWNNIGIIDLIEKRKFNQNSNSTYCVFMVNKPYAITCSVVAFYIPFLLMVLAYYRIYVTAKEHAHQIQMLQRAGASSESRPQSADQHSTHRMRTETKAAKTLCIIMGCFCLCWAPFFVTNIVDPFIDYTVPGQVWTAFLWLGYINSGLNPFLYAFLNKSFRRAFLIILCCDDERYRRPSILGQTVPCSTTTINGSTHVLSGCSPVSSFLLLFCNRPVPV
Sequence of 5-HT5A receptor (P47898 whole entry): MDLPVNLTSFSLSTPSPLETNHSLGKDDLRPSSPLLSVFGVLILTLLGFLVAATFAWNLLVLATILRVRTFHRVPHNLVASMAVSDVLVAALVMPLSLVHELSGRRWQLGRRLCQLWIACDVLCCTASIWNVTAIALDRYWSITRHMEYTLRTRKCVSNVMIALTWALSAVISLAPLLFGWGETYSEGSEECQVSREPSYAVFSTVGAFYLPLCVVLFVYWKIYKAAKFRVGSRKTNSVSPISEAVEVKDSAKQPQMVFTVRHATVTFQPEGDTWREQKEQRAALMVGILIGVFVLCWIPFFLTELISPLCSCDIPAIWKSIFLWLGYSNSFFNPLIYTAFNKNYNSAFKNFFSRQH
Sequence of 5-HT1D receptor (P28221 whole entry): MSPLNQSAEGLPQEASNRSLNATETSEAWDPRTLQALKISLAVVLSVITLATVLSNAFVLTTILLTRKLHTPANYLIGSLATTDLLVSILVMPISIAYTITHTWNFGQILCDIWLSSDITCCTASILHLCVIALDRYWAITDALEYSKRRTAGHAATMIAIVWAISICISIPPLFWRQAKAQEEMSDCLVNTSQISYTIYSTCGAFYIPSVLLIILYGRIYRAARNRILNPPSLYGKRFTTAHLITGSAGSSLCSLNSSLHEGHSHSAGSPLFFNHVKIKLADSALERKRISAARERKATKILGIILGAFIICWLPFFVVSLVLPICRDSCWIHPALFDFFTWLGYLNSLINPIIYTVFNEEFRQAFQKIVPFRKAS
Sequence of 5-HT6 receptor (P50406 whole entry): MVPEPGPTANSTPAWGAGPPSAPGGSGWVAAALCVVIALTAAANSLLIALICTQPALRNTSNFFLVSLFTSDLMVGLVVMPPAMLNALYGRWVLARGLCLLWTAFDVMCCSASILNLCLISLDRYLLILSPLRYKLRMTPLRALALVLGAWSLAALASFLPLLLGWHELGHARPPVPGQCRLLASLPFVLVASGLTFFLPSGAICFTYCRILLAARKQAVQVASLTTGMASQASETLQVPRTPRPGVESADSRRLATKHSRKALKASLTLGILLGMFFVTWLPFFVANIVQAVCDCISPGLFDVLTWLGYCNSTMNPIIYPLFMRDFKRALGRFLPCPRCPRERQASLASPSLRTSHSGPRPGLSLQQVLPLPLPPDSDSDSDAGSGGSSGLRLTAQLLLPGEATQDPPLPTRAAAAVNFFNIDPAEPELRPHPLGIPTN
Sequence of L-type calcium channel binding (CCB) site (P22002 whole entry): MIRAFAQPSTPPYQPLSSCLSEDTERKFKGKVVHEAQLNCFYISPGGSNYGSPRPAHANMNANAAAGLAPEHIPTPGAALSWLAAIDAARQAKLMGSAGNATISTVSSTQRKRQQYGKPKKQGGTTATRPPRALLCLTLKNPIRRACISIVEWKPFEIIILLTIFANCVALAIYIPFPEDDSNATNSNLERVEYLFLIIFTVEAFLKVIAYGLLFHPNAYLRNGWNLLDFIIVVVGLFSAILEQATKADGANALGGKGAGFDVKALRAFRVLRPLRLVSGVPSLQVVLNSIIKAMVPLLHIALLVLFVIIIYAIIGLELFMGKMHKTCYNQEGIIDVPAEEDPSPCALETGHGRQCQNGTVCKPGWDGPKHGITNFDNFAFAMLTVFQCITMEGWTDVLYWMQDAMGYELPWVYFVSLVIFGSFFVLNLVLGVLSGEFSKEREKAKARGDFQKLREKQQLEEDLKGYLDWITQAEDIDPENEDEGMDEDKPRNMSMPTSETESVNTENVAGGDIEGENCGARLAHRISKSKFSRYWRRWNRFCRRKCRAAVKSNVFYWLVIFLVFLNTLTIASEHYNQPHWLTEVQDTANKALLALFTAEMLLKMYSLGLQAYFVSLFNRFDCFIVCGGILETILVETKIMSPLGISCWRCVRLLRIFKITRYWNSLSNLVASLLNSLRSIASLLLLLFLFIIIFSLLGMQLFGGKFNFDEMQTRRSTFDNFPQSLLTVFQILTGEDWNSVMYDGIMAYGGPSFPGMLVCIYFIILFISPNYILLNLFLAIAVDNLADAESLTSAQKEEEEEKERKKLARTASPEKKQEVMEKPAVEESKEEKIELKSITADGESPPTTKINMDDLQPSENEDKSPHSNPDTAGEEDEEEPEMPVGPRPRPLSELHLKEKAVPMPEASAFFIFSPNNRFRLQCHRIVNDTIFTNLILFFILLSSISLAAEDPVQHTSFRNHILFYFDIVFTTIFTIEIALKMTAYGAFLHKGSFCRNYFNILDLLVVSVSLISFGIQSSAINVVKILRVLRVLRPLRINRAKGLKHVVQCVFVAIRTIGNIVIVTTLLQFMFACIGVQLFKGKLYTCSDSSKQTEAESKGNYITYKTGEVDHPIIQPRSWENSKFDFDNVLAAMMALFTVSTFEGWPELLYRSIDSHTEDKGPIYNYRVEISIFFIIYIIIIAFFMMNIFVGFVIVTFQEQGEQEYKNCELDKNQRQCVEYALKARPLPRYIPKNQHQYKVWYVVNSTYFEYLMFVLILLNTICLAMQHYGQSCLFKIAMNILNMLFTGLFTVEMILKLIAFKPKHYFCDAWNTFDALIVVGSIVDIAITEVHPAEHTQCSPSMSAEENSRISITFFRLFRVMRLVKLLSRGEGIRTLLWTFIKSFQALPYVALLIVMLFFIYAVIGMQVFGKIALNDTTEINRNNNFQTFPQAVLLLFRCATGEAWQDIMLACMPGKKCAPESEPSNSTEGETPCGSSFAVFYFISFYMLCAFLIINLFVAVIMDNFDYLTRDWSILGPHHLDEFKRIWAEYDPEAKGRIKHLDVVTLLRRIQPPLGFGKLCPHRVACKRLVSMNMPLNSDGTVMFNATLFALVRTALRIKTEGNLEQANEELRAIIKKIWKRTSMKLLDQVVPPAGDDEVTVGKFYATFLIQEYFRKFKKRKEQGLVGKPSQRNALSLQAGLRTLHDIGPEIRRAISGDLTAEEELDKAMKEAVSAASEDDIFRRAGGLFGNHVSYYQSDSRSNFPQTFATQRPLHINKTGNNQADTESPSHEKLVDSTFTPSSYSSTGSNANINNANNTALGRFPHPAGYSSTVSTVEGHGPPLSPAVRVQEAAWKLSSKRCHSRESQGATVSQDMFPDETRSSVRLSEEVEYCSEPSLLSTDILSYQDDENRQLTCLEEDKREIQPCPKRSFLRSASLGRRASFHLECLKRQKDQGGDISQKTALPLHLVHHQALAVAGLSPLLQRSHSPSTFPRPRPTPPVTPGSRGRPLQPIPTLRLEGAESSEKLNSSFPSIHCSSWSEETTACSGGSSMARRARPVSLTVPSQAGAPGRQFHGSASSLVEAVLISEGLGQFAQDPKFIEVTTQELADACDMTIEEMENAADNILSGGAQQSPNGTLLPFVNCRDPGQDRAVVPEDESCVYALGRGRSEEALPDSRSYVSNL

For `COc1ccc(CCN(C)CCC[C@](C#N)(c2ccc(OC)c(OC)c2)C(C)C)cc1OC` [(R)-verapamil], the “percentage of binding, 5-HT5A” value (5-HT5A receptor) was >100(19%), the “percentage of binding, 5-HT6” value (5-HT6 receptor) was >100(47%) and the “percentage of binding, 5-HT4E” value (5-HT4E receptor) was >100(24%). For the same compound, the “percentage of binding, 5-HT1D” value (5-HT1D receptor) was >100(17%), the “% Binding, 5-HT2B” value (5-HT2B receptor [1]; at 0.1 (×10^−7 M)) was 0% and the “% Binding, 5-HT2B” value (5-HT2B receptor [1]; at 0.3 (×10^−7 M)) was 10%. For the same compound, the “% Binding, 5-HT2B” value (5-HT2B receptor [1]; at 1.0 (×10^−7 M)) was 39%, the “% Binding, 5-HT2B” value (5-HT2B receptor [1]; at 3.0 (×10^−7 M)) was 68% and the IC50 (Na channel) was 1.8 µM.

`COc1ccc([C@@H]2Sc3ccccc3N(CCN(C)C)C(=O)[C@@H]2OC(C)=O)cc1` [Diltiazem] was tested, and the “percentage of binding, ML-1” value (melatonin ML-1 [2]; at 100×10^−7 M) was >100(9%).

For `COC(=O)C1=C(C)NC(C)=C(C(=O)OC(C)C)C1c1cccc2nonc12` (centres unmarked) [Isradipine], the “(IC50: ML-1)/(IC50: CCB)” value (melatonin ML-1 [3]) was 4,348, the IC50 (melatonin ML-1 [2]; chicken brain) was 2 µM and the “(IC50: 5-HT2B)/(IC50: CCB)” value (5-HT2B receptor [4]) was 21,739. For the same compound, the IC50 [5] was 0.00046 µM.
